One test deals with HCT116 cells. The experiment in a line: NADP/NADPH ratio and dUMP levels in HCT116 cells. The format is cell-based, human. The conditions noted are these: dose-response. On the procedure:
For analysis of intracellular metabolites by LC-MS, adherent cell lines were plated and grown to 80% confluency in 6-well plates. At the start of an experiment, the appropriate media was added to cells, which included isotope tracers and/or chemical inhibitors as described. Cells were incubated at 37° C. at 5% CO2 for 2 hours (unless otherwise noted). For all experiments involving small molecule agents, DMSO concentrations were <0.2%. After 2 hours, media was removed by aspiration and metabolome extraction was performed (without any wash steps) by the addition of 800 µL of ice cold solvent (40:40:20 acetonitrile:methanol:water + 0.5% formic acid). After a 1-minute incubation on ice, the extract was neutralized by the addition of NH4HCO3 (15% w/v). The samples were incubated at -20° C. for approximately 30 minutes, at which point the wells were scraped and the extract transferred to Eppendorf tubes and centrifuged (15 minutes, 16000 rpm, 4° C.). […]
Metabolites were analyzed using a quadrupole-orbitrap mass spectrometer (Q Exactive Plus, Thermo Fisher Scientific, Waltham, MA), coupled to hydrophilic interaction chromatography (HILIC) with LC separation on a XBridge BEH Amide column (Waters), or a stand-alone orbitrap (Thermo-Fisher Exactive) coupled to reversed-phase ion-pairing chromatography with LC separation on a HSS-T3 column (Waters). […]

The next test relates to CD8+ and CD4+ T cells. Nature of the test: Intracellular ROS (CellROX green). It is filed as cell-based, mouse. The settings on record: two hours. As for the experimental part:
For measuring intracellular ROS levels, cells were incubated for 2 hours in the presence of increasing concentrations of G6PDi-1 and then stained for ROS and viability using CellROX Green Flow Cytometry Assay Kit following manufacturer instructions. In some experiments, n-acetyl cysteine (1 mM), galactose oxidase (0.045 U/mL) + galactose (500 µM), or potassium superoxide (0.5 µg/mL) were added to the culture media at the same time the drug and/or PMA and ionomycin were added. All flow cytometry was analyzed with an LSR II (BDbiosciences) using standard filter sets and FCS express 6 flow cytometry software (De Novo Software).

For test [1], the system named is bone marrow derived macrophages. The experiment in a line: Intracellular cytokines in bone marrow-derived macrophages. The format is cell-based, mouse. As for the experimental part:
Mouse bone marrow monocyte/macrophage progenitors were isolated from femur and tibia and cultured in BMM media (DMEM supplemented with 10% FBS, 20% L929-conditioned media, 100 U/ml penicillin, and 100 µg/ml streptomycin). Expression of CD11b and F4/80 was checked by flow cytometry after 6 days in culture. Mature macrophages were either maintained in BMM media (M0 macrophages) or stimulated overnight with LPS (100 ng/mL) + IFNγ (20 ng/mL) for M1 activation or IL-4 (20 ng/mL) for M2 activation.
To analyze intracellular cytokines, active T cells were re-stimulated with PMA (20 ng/ml) and ionomycin (1 µg/ml) in the presence of GolgiStop and increasing concentrations of G6PDi-1. After a 6-hour incubation period, cells were collected, washed with PBS and stained with the viability dye Live/Dead Aqua. Cells were then washed with staining buffer and stained for surface markers: CD4 (APC-Cy7, clone RM4-5,), CD8a (PerCP-Cy5.5, clone 53-6.7). Cells were then fixed and permeabilized and stained for intracellular cytokines: IFN-γ (FITC, clone XMG1.2), TNFα (PE-Cyanine7, clone MP6-XT22) and IL-2 (PE, clone JES6-5H4). To analyze intracellular cytokines, mature macrophages were stimulated with LPS (100 ng/mL) + IFNγ (20 ng/mL) in the presence of GolgiStop and increasing concentrations of G6PDi-1. […]

For test [2], the system named is CD4+ regulatory T cells (Treg). Nature of the test: Treg assays. It is filed as cell-based. The conditions noted are these: CD3/CD28 in the presence of TGF-β. On the procedure: Spleen and peripheral lymph nodes were harvested and processed to single cell suspensions of lymphocytes. Red blood cells were removed with hypotonic lysis. We used magnetic beads (Miltenyi Biotec, San Diego, CA) for isolation of Tconv (CD4^+CD25^-), Treg (CD4^+CD25^+), and antigen presenting cells (CD90.2^-). For cell culture medium, we used RPMI 1640 medium supplemented with 10% fetal bovine serum (FBS), penicillin (100 U/mL), streptomycin (100 µg/mL), and 55 µM β-mercaptoethanol Treg suppression and iTreg polarization were conducted as previously reported. For Treg suppression assays, Tconv were purified and stimulated with irradiated antigen presenting cells plus CD3ε mAb (1 µg/mL, BD Pharmingen). To assess proliferation, Tconv cells were labeled with carboxyfluorescein succinimidyl ester (CFSE), and Treg cells with CellTrace Violet. After 72 h, proliferation of Tconv and Treg cells was determined by flow cytometric analysis of CFSE and CellTrace Violet dilution, respectively. For conversion to Foxp3^+ Tregs, Tconv cells were incubated for 3-5 days with CD3ε/CD28 mAb beads, plus TGF-β (3 ng/mL) and IL-2 (25 U/mL), and analyzed by flow cytometry for Foxp3+ iTreg. Flow cytometry data was captured using Cytoflex (Beckman Coulter, Brea, CA) and analyzed using the FlowJo 10.2 software.

Test [3] has as its target T1, G6PD (Homo sapiens, UniProt P11413). Nature of the test: Cellular thermal shift assay (CETSA) in HepG2 lysates. Details: endogenous in cells. The settings on record: up to 56° C. It is filed as binding. On the procedure:
Lysates from HepG2 cells at 75% confluence were isolated with 0.5% Triton in TBS (20 mM, Tris pH 7.4, 150 mM NaCl) for 30 min on ice, pre-cleared by centrifugation and used for thermal shift assay as described 49. Briefly, inhibitor or DMSO control was added to lysates at indicated concentration and incubated for 30 min on ice followed by 3 min heating at 47° C., 50° C., 53° C., and 56° C. in a thermal cycler. After heating, tubes were cooled at room temperature for 3 min and insoluble fraction removed by centrifugation at 17,000 g for 20 min. The soluble fraction was separated by SDS-PAGE, transferred to PVDF membrane, and immunoblotted using indicated antibodies at a dilution of 1:2000. Blots were developed by chemiluminescence and imaged using LI-COR C-DiGit Western Blot Scanner. Two independent experiments were performed. Signal intensity of proteins from immunoblots was quantified using Image Studio version 5.2 for C-DiGit Scanner, and bands were normalized to signal intensity of the 47° C. treated samples. Relative signal intensities were plotted as bar graph relative to the DMSO treated control.
Target sequence in this assay (P11413 whole entry): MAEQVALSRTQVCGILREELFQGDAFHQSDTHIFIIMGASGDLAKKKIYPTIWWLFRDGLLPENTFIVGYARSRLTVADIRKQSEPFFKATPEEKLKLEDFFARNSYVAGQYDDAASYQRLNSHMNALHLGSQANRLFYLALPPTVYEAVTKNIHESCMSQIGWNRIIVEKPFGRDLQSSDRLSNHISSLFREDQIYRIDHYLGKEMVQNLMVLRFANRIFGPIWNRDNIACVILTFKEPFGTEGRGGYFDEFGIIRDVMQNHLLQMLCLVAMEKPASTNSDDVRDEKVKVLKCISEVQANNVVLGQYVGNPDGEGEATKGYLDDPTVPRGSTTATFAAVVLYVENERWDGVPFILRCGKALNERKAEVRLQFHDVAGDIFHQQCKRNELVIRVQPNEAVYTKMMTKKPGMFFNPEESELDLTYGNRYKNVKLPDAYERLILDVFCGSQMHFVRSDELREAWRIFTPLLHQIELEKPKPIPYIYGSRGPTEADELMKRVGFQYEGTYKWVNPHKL

Test [4] has as its target T1, G6PD. Nature of the test: G6PD enzymatic activity by diaphorase-coupled assay.
Target sequence in this assay (P11413 28-515): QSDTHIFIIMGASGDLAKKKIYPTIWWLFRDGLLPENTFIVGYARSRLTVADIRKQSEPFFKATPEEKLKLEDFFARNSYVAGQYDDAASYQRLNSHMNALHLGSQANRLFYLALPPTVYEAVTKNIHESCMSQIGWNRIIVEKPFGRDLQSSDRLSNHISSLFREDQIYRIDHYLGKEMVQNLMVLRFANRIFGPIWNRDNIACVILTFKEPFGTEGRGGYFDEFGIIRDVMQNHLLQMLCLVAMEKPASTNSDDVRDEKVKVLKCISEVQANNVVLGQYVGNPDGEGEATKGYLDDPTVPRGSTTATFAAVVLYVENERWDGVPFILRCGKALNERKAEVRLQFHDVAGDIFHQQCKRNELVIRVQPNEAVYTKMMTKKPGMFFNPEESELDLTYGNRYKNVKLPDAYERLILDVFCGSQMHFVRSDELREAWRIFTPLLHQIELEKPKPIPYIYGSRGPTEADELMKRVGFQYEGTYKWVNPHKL

What is called IC50 is the concentration that inhibits the measured activity by half.

`N#Cc1cc(Nc2ncc3c(n2)CCCCC3=O)cs1` [Compound 2, 4-([5-oxo-6H,7H,8H,9H-cyclohepta[d]pyrimidin-2-yl]amino)thiophene-2-carbonitrile]: in the test on HCT116 cells, the NADP/NADPH entry was “dose-dependent increases” and the dUMP entry is reported as “dose-dependent increases”. Besides, in the test with CD8+ and CD4+ T cells, the reactive oxygen species result is on record as “elevated reactive oxygen species”. Also, the macrophage cytokine production result in test [1] (classically activated macrophages (MΦ-1)) is “minimally affecting”. Besides, in test [1] (macrophages), the “NADPH, LPS-induced pro-inflammatory cytokine production, iNOS upregulation” value is given as “did not decrease”. Moreover, the “formation and proliferation of Foxp3+ cells” value in test [2] is “unaffected”. For the same compound, the “thermal stabilization of G6PD” value on G6PD [3] is reported as “significant thermal stabilization of G6PD”. In addition, at G6PD [4] (competition assays against both substrates, in vitro dilution experiments), the “mode of binding to G6PD” value is “non-competitively and reversibly”. The IC50 on G6PD [4] (read-out: IC50 (half-maximal inhibitory constant) against human G6PD, coupled enzymatic assay, recombinant human enzyme) turned out to be 0.07 µM.
